From the supplement of paper PMC13380429

Tests used:
Conditions in all cases: 72 h
Caco-2 [1] = experiment: cell viability relative to DMSO; higher = less toxic
Calu-3 [2] = experiment: as above
HepG2 [3] = experiment: as above
U2OS [4] = experiment: as above
Vero E6 [5] = experiment: as above
Caco-2 [6] = experiment: relative viability EC50 (midpoint between 100% and the lowest measured viability); higher = less toxic
Calu-3 [7] = experiment: as above
HepG2 [8] = experiment: as above
U2OS [9] = experiment: as above
Vero E6 [10] = experiment: as above
Caco-2 [11] = experiment: drug sensitivity score (DSS) for viability; higher = more toxic; extreme values may be limits of the assay
Calu-3 [12] = experiment: as above
HepG2 [13] = experiment: as above
U2OS [14] = experiment: as above
Vero E6 [15] = experiment: as above

| SMILES | cell viability (Caco-2 [1]; 1 nM) | cell viability (Caco-2 [1]; 10 nM) | cell viability (Caco-2 [1]; 100 nM) | cell viability (Caco-2 [1]; 1000 nM) | cell viability (Caco-2 [1]; 10000 nM) | cell viability (Calu-3 [2]; 1 nM) | cell viability (Calu-3 [2]; 10 nM) | cell viability (Calu-3 [2]; 100 nM) | cell viability (Calu-3 [2]; 1000 nM) | cell viability (Calu-3 [2]; 10000 nM) | cell viability (HepG2 [3]; 1 nM) | cell viability (HepG2 [3]; 10 nM) | cell viability (HepG2 [3]; 100 nM) | cell viability (HepG2 [3]; 1000 nM) | cell viability (HepG2 [3]; 10000 nM) | cell viability (U2OS [4]; 1 nM) | cell viability (U2OS [4]; 10 nM) | cell viability (U2OS [4]; 100 nM) | cell viability (U2OS [4]; 1000 nM) | cell viability (U2OS [4]; 10000 nM) | cell viability (Vero E6 [5]; 1 nM) | cell viability (Vero E6 [5]; 10 nM) | cell viability (Vero E6 [5]; 100 nM) | cell viability (Vero E6 [5]; 1000 nM) | cell viability (Vero E6 [5]; 10000 nM) | relative viability EC50 (Caco-2 [6]) | relative viability EC50 (Calu-3 [7]) | relative viability EC50 (HepG2 [8]) | relative viability EC50 (U2OS [9]) | relative viability EC50 (Vero E6 [10]) | drug sensitivity score (Caco-2 [11]) | drug sensitivity score (Calu-3 [12]) | drug sensitivity score (HepG2 [13]) | drug sensitivity score (U2OS [14]) | drug sensitivity score (Vero E6 [15]) |
| --- | --- | --- | --- | --- | --- | --- | --- | --- | --- | --- | --- | --- | --- | --- | --- | --- | --- | --- | --- | --- | --- | --- | --- | --- | --- | --- | --- | --- | --- | --- | --- | --- | --- | --- | --- |
| CC(=O)CC(c1ccccc1)c1c(O)c2ccccc2oc1=O (stereo not given) [warfarin] | 98% | 108% | 101% | 95.1% | 99.7% | 100% | 91.9% | 104% | 97.8% | 115% | 100% | 85.7% | 94.8% | 98.5% | 107% | 96% | 97.2% | 98.3% | 102% | 94.9% | 101% | 96.9% | 105% | 103% | 97.1% | > 10 µM | > 10 µM | > 10 µM | > 10 µM | > 10 µM | 0 | 0 | 0 | 0 | 0 |
| CC(=O)OCC(=O)[C@@]1(O)CC[C@H]2[C@@H]3CCC4=CC(=O)CC[C@]4(C)[C@@]3(F)[C@@H](O)C[C@@]21C [FLUDROCORTISONE ACETATE] | 102% | 102% | 99.5% | 92.8% | 101% | 97.7% | 94.4% | 93% | 85.1% | 104% | 104% | 95.9% | 104% | 87.5% | 95.3% | 98.1% | 101% | 95.8% | 94.7% | 93.1% | 97.7% | 99.8% | 96.5% | 96.5% | 97.7% | > 10 µM | > 10 µM | > 10 µM | > 10 µM | > 10 µM | 0 | 0 | 0.6 | 0 | 0 |
| CSc1ccc(C(=O)/C=C/c2cc(C)c(OC(C)(C)C(=O)O)c(C)c2)cc1 [elafibranor] | 99.5% | 92.5% | 103% | 90.5% | 84.6% | 101% | 97% | 100% | 108% | 114% | 101% | 108% | 93.5% | 99.1% | 96.3% | 99.7% | 94% | 97.7% | 98.1% | 94.3% | 90.8% | 97% | 89.5% | 91.1% | 98.5% | > 10 µM | > 10 µM | > 10 µM | > 10 µM | > 10 µM | 1 | 0 | 0 | 0 | 0 |
| C[C@@H](O)[C@H]1C(=O)N2C(C(=O)O)=C(S[C@@H]3CN[C@H](C(=O)Nc4cccc(C(=O)O)c4)C3)[C@H](C)[C@H]12 [ertapenem] | 101% | 114% | 84.3% | 96.3% | 85.9% | 98.2% | 99.7% | 94.4% | 89.7% | 97.8% | 90.9% | 97.4% | 93.2% | 103% | 91.9% | 94.7% | 98.9% | 96.8% | 101% | 99.5% | 106% | 98.3% | 106% | 100% | 103% | > 10 µM | > 10 µM | > 10 µM | > 10 µM | > 10 µM | 2.7 | 0 | 0 | 0 | 0 |
| CCOc1cc([C@@H](CS(C)(=O)=O)N2C(=O)c3cccc(NC(C)=O)c3C2=O)ccc1OC [apremilast] | 93.4% | 100% | 98.8% | 97.3% | 106% | 102% | 108% | 89.8% | 99.9% | 108% | 102% | 95% | 101% | 84.1% | 100% | 93.1% | 101% | 97.8% | 92.7% | 99.1% | 104% | 104% | 98.7% | 99.6% | 99.6% | > 10 µM | > 10 µM | > 10 µM | > 10 µM | > 10 µM | 0 | 0 | 0 | 0 | 0 |
| CN(C)[C@@H](CCOc1cccc2ccccc12)c1ccccc1 [dapoxetine] | 98.5% | 96% | 101% | 102% | 89.6% | 103% | 104% | 105% | 91.7% | 81.3% | 94.1% | 104% | 97.1% | 95.7% | 89% | 103% | 103% | 103% | 98.2% | 89.3% | 97.5% | 101% | 98.7% | 98.8% | 88.6% | > 10 µM | > 10 µM | > 10 µM | > 10 µM | > 10 µM | 0 | 1.3 | 0 | 0 | 0.1 |
| Nc1nc(OCc2ccccc2)c2nc[nH]c2n1 [O6-benzylguanine] | 105% | 95.2% | 98% | 98.7% | 106% | 103% | 89.5% | 107% | 88.1% | 105% | 95.9% | 105% | 96.8% | 108% | 94.6% | 101% | 99.9% | 100% | 97.3% | 104% | 93.6% | 108% | 87.3% | 103% | 90.4% | > 10 µM | > 10 µM | > 10 µM | > 10 µM | > 10 µM | 0 | 0 | 0 | 0 | 0 |
| OCc1cccnc1 [nicotinyl-alcohol-tartrate] | 97.8% | 97% | 102% | 96.1% | 106% | 96.6% | 100% | 92.7% | 99.3% | 96.4% | 95.4% | 102% | 91.2% | 104% | 96.1% | 102% | 104% | 96.7% | 100% | 95.5% | 92.6% | 101% | 87.8% | 101% | 91.8% | > 10 µM | > 10 µM | > 10 µM | > 10 µM | > 10 µM | 0 | 0 | 0 | 0 | 0 |
| O=C(O)c1ccc(CN2CCC(CN[C@@H]3C[C@H]3c3ccccc3)CC2)cc1 | 101% | 108% | 94% | 105% | 102% | 89.3% | 101% | 94.7% | 102% | 103% | 105% | 93.8% | 104% | 92.5% | 92% | 95.9% | 96.8% | 95.8% | 98.3% | 96% | 100% | 103% | 99.2% | 90.9% | 95.2% | > 10 µM | > 10 µM | > 10 µM | > 10 µM | > 10 µM | 0 | 0 | 0 | 0 | 0 |
| Clc1ccc([C@]23CNC[C@H]2C3)cc1Cl [amitifadine] | 99.2% | 92% | 103% | 87.3% | 95.8% | 106% | 90.7% | 101% | 105% | 97.9% | 89.5% | 104% | 98.2% | 98.6% | 94.9% | 100% | 97.6% | 103% | 98.4% | 104% | 101% | 105% | 100% | 103% | 99% | > 10 µM | > 10 µM | > 10 µM | > 10 µM | > 10 µM | 0 | 0 | 0 | 0 | 0 |
| O[C@H]1[C@H]2[C@H](O)CCCN2C[C@H]1O [swainsonine] | 79% | 95.1% | 86.8% | 81.5% | 81.7% | 97.5% | 104% | 91.1% | 88.7% | 87.1% | 110% | 96.4% | 90.9% | 88.9% | 94.2% | 95.8% | 103% | 98.5% | 105% | 92.3% | 112% | 97% | 97.5% | 83.7% | 88.1% | > 10 µM | > 10 µM | > 10 µM | > 10 µM | > 10 µM | 0 | 1.3 | 0.5 | 0 | 2 |
| COc1cc(C)nc(-n2nc(C)cc2OC)n1 [epirizole] | 83.5% | 92.7% | 82.3% | 97.4% | 89% | 91.9% | 92.2% | 88.3% | 97.3% | 86% | 103% | 96.7% | 105% | 94% | 97.8% | 95.1% | 101% | 94.8% | 99.8% | 97% | 112% | 99.3% | 110% | 105% | 94.9% | > 10 µM | > 10 µM | > 10 µM | > 10 µM | > 10 µM | 0 | 0 | 0 | 0 | 0 |
| CC(=O)Nc1ccc(S(=O)(=O)Nc2ccc([N+](=O)[O-])cc2)cc1 [sulfanitran] | 99% | 96.6% | 97.9% | 92.9% | 99.1% | 96.5% | 105% | 103% | 89% | 98.9% | 104% | 94.5% | 105% | 95% | 109% | 97.6% | 106% | 98.7% | 105% | 102% | 101% | 94.5% | 97% | 97.1% | 104% | > 10 µM | > 10 µM | > 10 µM | > 10 µM | > 10 µM | 0 | 0 | 0 | 0 | 0 |
| CCOC(=O)c1ccc(O)cc1 [ethyl-paraben] | 101% | 94.3% | 101% | 99.2% | 100% | 96.6% | 93% | 106% | 97.3% | 92% | 108% | 102% | 101% | 94.7% | 97.8% | 96.3% | 97% | 107% | 98.3% | 106% | 102% | 99.7% | 98.9% | 104% | 99.8% | > 10 µM | > 10 µM | > 10 µM | > 10 µM | > 10 µM | 0 | 0 | 0 | 0 | 0 |
